In patent publication US20210254000A1, “PROCESS FOR PRODUCING A T CELL COMPOSITION” (Juno Therapeutics, Inc., priority 2017, published 2021):
Like-named read-outs stand apart in the source and are kept apart here.

How the values were obtained:
Ribo-S6 phosphorylation = assay: Inhibition of ribosomal protein S6 phosphorylation in stimulated primary human T cells (flow cytometry); type: cell-based
Protocol: The dose effect of exemplary mTOR kinase inhibitors in primary human T cells was assessed by monitoring inhibition of ribosomal protein S6.
CD4+ and CD8+ T cells were isolated by immunoaffinity-based enrichment from leukapheresis samples from human donor subjects. Isolated CD4+ and CD8+ T cells were mixed 1:1 and stimulated with anti-CD3/anti-CD28 magnetic beads in the presence of increasing concentrations of an mTOR kinase inhibitor, PI-103, Compound 155, Compound 63, or Compound 246. The T cell cultures were incubated overnight (approximately 16 hr) at 37° C. Following incubation in the presence of PI-103, Compound 155, Compound 63, or Compound 246, T cells were assessed for intracellular S6 phosphorylation and co-stained for surface expression of CD4 or CD8, by flow cytometry.

[1] = test system: engineered CD8+ and CD4+ T cells; assay: T cell expansion of anti-CD19 CAR-transduced CD4+ and CD8+ T cells incubated with mTOR kinase inhibitor; type: cell-based
Protocol: Separate compositions of CD4+ and CD8+ cells were isolated from human leukapheresis samples by immunoaffinity-based enrichment and cryofrozen. The CD4+ and CD8+ cells of the compositions were subsequently thawed and activated by separately culturing the cells under stimulating conditions in the presence of anti-CD3/anti-CD28 magnetic beads and recombinant IL-2, IL-7 and/or IL-15 for approximately 20 hours. Cells were then transduced with a viral vector encoding an anti-CD19 chimeric antigen receptor (CAR). After transduction, the CD4+ and CD8+ cells were separately incubated in the presence of an mTOR kinase inhibitor, either Compound 155, Compound 63, or Compound 246, at various concentrations. For controls, cells were incubated with media only, DMSO vehicle, or with 200 nM PI-103. Incubation was carried out at 37° C. for approximately 8 days post-thaw with one media change, at which point the compounds were re-added to the culture media at the same concentration.
The percent of CD8+ and CD4+ T cells at the end of the process as compared to the amount of cells seeded for culture following the transduction is shown in FIG. 2. The cutoff for selecting a tolerated dose was set at 70% of the mean values of the media and DMSO controls.

[2] = Homo sapiens, T-cell, CD8+ T cells, read-out: IC50 for inhibition of Ribo-S6 phosphorylation, CD8
[3] = Homo sapiens, CD4+ T cells, read-out: IC50 for inhibition of Ribo-S6 phosphorylation, CD4
[4] = T-cell, primary human CD4+/CD8+ T cells mixed 1:1, anti-CD3/anti-CD28 beads, approximately 16 hr, read-out: IC50 for the inhibition of S6 phosphorylation in the T cells

Compound | IC50 (Ribo-S6 phosphorylation; [2]) | IC50 (Ribo-S6 phosphorylation; [3]) | IC50 (Ribo-S6 phosphorylation; [4]) | highest tolerated dose resulting in similar CD8 and CD4 T cell expansion as vehicle control ([1]; human) | highest tolerated dose resulting in similar CD8 and CD4 T cell expansion as vehicle control ([1]; cutoff 70% of mean of media and DMSO controls, approximately 8 days post-thaw)
O=c1[nH]c2ncc(-c3ccc(-c4nc[nH]n4)cc3)nc2n1CCC1CCOCC1 [Compound 155, 6-(4-(2H-1,2,4-Triazol-3-yl)phenyl)-1-(2-(tetrahydro-2H-pyran-4-yl)ethyl)-1H-imidazo [4,5-b]pyrazine-2(3H)-one] | 127 nM | 121 nM | ~100 nM | 100 nM | 
CO[C@H]1CC[C@H](N2C(=O)CNc3ncc(-c4ccc(C(C)(C)O)nc4)nc32)CC1 [Compound 246, 7-(6-(2-hydroxypropan-2-yl)pyridin-3-yl)-1-((1r,4r)-4-methoxycyclohexyl)-3,4-dihydropyrazino[2,3-b]pyrazin-2(1H)-one] | 502 nM | 475 nM | ~500 nM |  | 100 nM
